# Measurements: patent US5668173A, “Method of increasing the conversion of homocysteine to methionine and uses thereof” (priority 1996, dated 1997)
# “Also recorded” adds a separate entry of the source. Where two headings read alike, the source gives them in different places.
# T1: pig liver betaine-homocysteine methyltransferase (Sus scrofa, UniProt A0A5G2RCW6)
# T1 construct: given as hexamer, now known as homotetramer
# T1 sequence (A0A5G2RCW6 1-407): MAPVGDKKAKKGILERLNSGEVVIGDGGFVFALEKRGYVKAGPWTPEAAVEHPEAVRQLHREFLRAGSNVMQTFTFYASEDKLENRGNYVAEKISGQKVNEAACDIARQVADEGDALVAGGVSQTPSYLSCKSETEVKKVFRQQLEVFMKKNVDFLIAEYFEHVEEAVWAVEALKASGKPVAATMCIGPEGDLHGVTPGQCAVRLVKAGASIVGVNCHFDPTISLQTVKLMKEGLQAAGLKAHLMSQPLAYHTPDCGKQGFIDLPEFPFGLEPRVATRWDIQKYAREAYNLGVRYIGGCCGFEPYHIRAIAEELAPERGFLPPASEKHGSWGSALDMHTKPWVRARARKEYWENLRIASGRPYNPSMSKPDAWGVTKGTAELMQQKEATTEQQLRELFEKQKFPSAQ
# What was measured:
# [1] = high dietary levels; cited from earlier work
# [2] = tested on: chickens; conditions: cited from earlier work
# [3] = tested on: rat betaine-homocysteine methyltransferase; conditions: rat enzyme containing extracts; read-out: Michealis constant; cited from earlier work
# [4] = tested on: betaine-homocysteine methyltransferase; conditions: cited from earlier work; for methionine produced compared with betaine as methyl donor: saturating levels of substrates, corrected for enzyme concentration
# [5] = tested on: growing rats; conditions: cited from earlier work; for replacement of dietary requirement for choline: growing rats, diets lacking methionine but containing homocystine; for food intake and growth: thetins 0.5-0.93% (w/w) of the diet, 3 to 4 weeks
# [6] = molecular target: T1, pig liver betaine-homocysteine methyltransferase; assay: Initial rate kinetics of purified pig liver betaine-homocysteine methyltransferase; assay type: biochemical; conditions: for Vmax(rel): Table II, relative, corrected for an equivalent amount of enzyme
# Experimental: (§1) Betaine-homocysteine methyltransferase activity was measured as described by Finkelstein and Mudd (43) with the following minor modifications. […] Following a 2 hour incubation, samples were chilled to 0° C. and 2.5 mL ice-cold water was added. The samples were loaded onto a 0.5 cm (diameter) column containing 1 mL of Dowex 1-X4 (OH--) resin (100-200 mesh). The unreacted betaine (or dimethylacetothetin) was washed from the column with water (3×5 mL), and dimethylglycine (or methylthioacetate) and methionine eluted into scintiallation vials with 3 mL 1.5 N HCl. Blanks contained all of the reaction components except enzyme and their values were subtracted from the sample values. All samples were assayed in duplicate.
# Michealis and Vmax constants were estimated from plotting initial rate data according to the method of Hanes (44).
# Betaine-homocysteine methyltransferase has been purified to homogeneity from pig liver (45).
# Using purified enzyme, initial rate studies were performed to determine the Michaelis constants of betaine, dimethylacetothetin, and homocysteine and to investigate the kinetic mechanism of the enzyme.
# [7] = cited from earlier work; for urinary level during betaine treatment: urine
# [8] = tested on: human betaine-homocysteine methyltransferase; conditions: human enzyme containing extracts; read-out: Michealis constant; cited from earlier work
# [9] = tested on: hepatic betaine-homocysteine methyltransferase; conditions: surfeit dietary levels, crude liver extracts, compared to control; cited from earlier work
# [10] = tested on: pigs; conditions: dietary betaine; cited from earlier work
# [11] = tested on: cystathionine-β-synthase; conditions: dietary cysteine increased; cited from earlier work
# [12] = tested on: horse betaine-homocysteine methyltrasferase; conditions: saturating levels of substrate; purified horse enzyme; cited from earlier work
# [13] = tested on: animals; conditions: prior studies; cited from earlier work
# [14] = tested on: Escherichia coli; conditions: cited from earlier work
# [15] = molecular target: T1, pig liver betaine-homocysteine methyltransferase; assay: Product inhibition of pig liver betaine-homocysteine methyltransferase activity; assay type: biochemical; conditions: for pmol methionine: inhibitor 50 μM, L-homocysteine 50 μM, betaine 25 μM
# Experimental: as §1
# The subsequent metabolism of these products could have significant effects on flux through the betaine-homocysteine methyltransferase reaction because the rate of product removal would determine whether a product accumulates enough to inhibit enzyme activity. When pharmacological doses of betaine is used for the treatment of severe hyperhomocyst(e)inemia, dimethylglycine oxidation appears to be insufficient, and as a result, dimethylglycine accumulates.
# Inhibition pf pig liver betaine-homocysteine methyltransferase
# activity by dimethyglycine ethylthoacetate in the presence of
# It is possible that homocysteine, dimethylglycine, and betaine-homocysteine methyltransferase form an abortive ternary complex.
# [16] = tested on: rat betaine-homocysteine methyltransferase; conditions: cited from earlier work
# [17] = tested on: human betaine-homocysteine methyltransferase; conditions: cited from earlier work
# [18] = tested on: primates; conditions: infusion, 3 month period; cited from earlier work
# [19] = sulfur amino acid intake optimal; cited from earlier work
# [20] = tested on: chickens; conditions: dietary; cited from earlier work
# [21] = tested on: cystathionine-β-synthase deficiency; conditions: cited from earlier work
# [22] = substrate: N[C@@H](CCS)C(=O)O; assay: purified protein, by the assay type; conditions: other: saturating levels of one substrate while varying the other; betaine 250 μM or L-homocysteine 500 μM fixed
# [23] = substrate: C[N+](C)(C)CC(=O)O; assay: Initial rate kinetics of purified pig liver betaine-homocysteine methyltransferase; assay type: biochemical; conditions: other: saturating levels of one substrate while varying the other; betaine 250 μM or L-homocysteine 500 μM fixed
# Experimental: (§2) Betaine-homocysteine methyltransferase activity was measured as described by Finkelstein and Mudd (43) with the following minor modifications. […] Following a 2 hour incubation, samples were chilled to 0° C. and 2.5 mL ice-cold water was added. The samples were loaded onto a 0.5 cm (diameter) column containing 1 mL of Dowex 1-X4 (OH--) resin (100-200 mesh). […] Blanks contained all of the reaction components except enzyme and their values were subtracted from the sample values. All samples were assayed in duplicate.
# [24] = substrate: C[S+](C)CC(=O)O; assay: as above; assay type: biochemical; conditions: other: saturating levels of one substrate while varying the other; betaine 250 μM or L-homocysteine 500 μM fixed
# Experimental: as §2
molecule,measurement,setting,value
CSCCC(=O)O [3-methylthiopropionate],toxicity,[1],produces toxic symptoms identical to those produced by excess methionine consumption
C[N+](C)(C)CC(=O)O [betaine],carcass fat,"[2]; dietary betaine, chickens",can reduce carcass fat
same,treatment of diarrhea and wet litter,[2]; fowl,effective in the treatment of diarrhea and wet litter
same,Km,[3],25 to 50 µM
same,Kcat of betaine-dependent reaction,[4],very low Kcat
same,Km,"[4]; prior studies, source of enzyme not stated",20 to 50 µM
same,replacement of dietary requirement for choline,[5],can replace the dietary requirement for choline
same,food intake and growth,[5],not different among experimental groups
same,Vmax(rel),[6],1
same,normalization of plasma homocysteine,[7]; betaine treatment of severe hyperhomocyst(e)inemia,rarely attained; also recorded: usually does not fall within the normal range; also recorded: does not usually lower plasma homocysteine to within the normal range
same,plasma homocysteine,"[7]; pharmacological doses of betaine, hyperhomocyst(e)inemia",reduce plasma homocysteine; also recorded: generally lowers plasma homocysteine compared to pretreatment levels
same,urinary level during betaine treatment,[7],dramatic increase
same,Km,[8],25 to 50 µM
same,hepatic betaine-homocysteine methyltransferase activity,[9],higher levels of betaine-homocysteine methyltransferase activity
same,carcass fat,[10],can reduce carcass fat
C[N+](C)(C)CCO [choline],food intake and growth,[5],not different among experimental groups
N[C@@H](CS)C(=O)O [cysteine],cystathionine-β-synthase activity and mRNA levels,[11],decrease
C[S+](C)CC(=O)O [dimethylacetothetin],methionine produced compared with betaine as methyl donor,[4],more methionine was produced
same,replacement of dietary requirement for choline,[5],can replace the dietary requirement for choline; also recorded: replace the dietary requirement for choline (or betaine)
same,Vmax(rel),[6],7
same,"rate of methylation of homocysteine, faster than with betaine","[6]; equimolar concentrations as betaine, inferred from Vmax/Km",at least 700%
same,Vmax/Km compared with betaine,[6]; greater than that for betaine,7 fold
same,relative Vmax compared with betaine,[6]; greater than when betaine was used,47 fold
same,specificity (Vmax/Km) compared with betaine,[6]; initial rate studies,greater specificity
same,increase in methionine production compared to betaine,[12],350 fold
same,toxicity to animals,[13],non-toxic to animals
same,effectiveness as osmolyte compared with betaine,[14],equally effective as betaine
CN(C)CC(=O)O [dimethylglycine],activity at 50 µM,[15],30%
same,type of inhibition relative to homocysteine,"[15]; Dixon plots, betaine 25 μM or 250 μM, L-homocysteine varied",uncompetitive inhibitor; also recorded: uncompetitive inhibition
same,pmol methionine,[15],208 pmol
same,inhibition of pig betaine-homocysteine methyltransferase,[15]; product inhibition studies,potent inhibitor
same,inhibition of rat betaine-homocysteine methyltransferase,[16],potent inhibitor
same,urinary level during betaine treatment,[7],dramatic increase
same,inhibition of methionine production,[17]; 10 μM dimethylglycine,50%
same,inhibition of human betaine-homocysteine methyltransferase,[17],potent inhibitor
C[S+](C)CCC(=O)O [dimethylpropiothetin],Vmax compared with betaine-dependent reaction,[4]; previous studies,higher Vmax
same,Vmax compared with dimethylacetothetin-dependent reaction,[4]; previous studies,lower Vmax
same,methionine produced compared with betaine as methyl donor,[4],more methionine was produced
same,replacement of dietary requirement for choline,[5]; listed as dimethylpropriothetin,can replace the dietary requirement for choline; also recorded: replace the dietary requirement for choline (or betaine)
same,increase in methionine production compared to betaine,[12],54 fold
same,toxicity to animals,[13],non-toxic to animals
N[C@@H](CCS)C(=O)O [homocysteine],Km,[3],25 to 50 µM
same,Km,[8],25 to 50 µM
same,vascular lesions,[18],vascular lesions have been induced in primates
CSCC[C@H](N)C(=O)O [methionine],toxicity,[1],most toxic of all amino acids required for protein synthesis
same,absorbed methionine converted to cysteine or completely oxidized,[19],about 30%
same,absorbed methionine retained by the animal,[19],about 70%
same,hepatic betaine-homocysteine methyltransferase activity,[9],higher levels of betaine-homocysteine methyltransferase activity
CSCC(=O)O [methylthioacetate],activity at 50 µM,[15],59%
same,pmol methionine,[15],416 pmol
same,affinity for betaine-homocysteine methyltransferase relative to dimethylglycine,[15]; than dimethylglycine,lower affinity
O=S(=O)(O)O [sulfate],cystine requirements,[20],decrease cystine requirements
vitamin B6,individuals non-responsive to vitamin B6,[21],50%
same,individuals responding to supplemental B6,[21],approximately 50%
"pig liver betaine-homocysteine methyltransferase (Sus scrofa) (protein, given as hexamer, now known as homotetramer) MAPVGDKKAKKGILERLNSGEVVIGDGGFVFALEKRGYVKAGPWTPEAAVEHPEAVRQLHREFLRAGSNVMQTFTFYASEDKLENRGNYVAEKISGQKVNEAACDIARQVADEGDALVAGGVSQTPSYLSCKSETEVKKVFRQQLEVFMKKNVDFLIAEYFEHVEEAVWAVEALKASGKPVAATMCIGPEGDLHGVTPGQCAVRLVKAGASIVGVNCHFDPTISLQTVKLMKEGLQAAGLKAHLMSQPLAYHTPDCGKQGFIDLPEFPFGLEPRVATRWDIQKYAREAYNLGVRYIGGCCGFEPYHIRAIAEELAPERGFLPPASEKHGSWGSALDMHTKPWVRARARKEYWENLRIASGRPYNPSMSKPDAWGVTKGTAELMQQKEATTEQQLRELFEKQKFPSAQ",Km,[22],32 µM
same,Km,[23],23 µM
same,Km,[24],155 µM
